Experimental data from patent US6335013B1, “Methods and materials relating to CD39-like polypeptides” (Hyseq, Inc., priority 1999, dated 2002).
Changes are numbered by the printed parent chain.

T1: CD39-L4 (Homo sapiens, UniProt O75356)
T1 construct: to allow purification of the secreted mature form of the protein; made in house; host or cells: COS-7 cells, transient transfection (pcDNA3.1); protein captured from the medium on Nickel-NTA resin
T1 sequence (O75356 25-428): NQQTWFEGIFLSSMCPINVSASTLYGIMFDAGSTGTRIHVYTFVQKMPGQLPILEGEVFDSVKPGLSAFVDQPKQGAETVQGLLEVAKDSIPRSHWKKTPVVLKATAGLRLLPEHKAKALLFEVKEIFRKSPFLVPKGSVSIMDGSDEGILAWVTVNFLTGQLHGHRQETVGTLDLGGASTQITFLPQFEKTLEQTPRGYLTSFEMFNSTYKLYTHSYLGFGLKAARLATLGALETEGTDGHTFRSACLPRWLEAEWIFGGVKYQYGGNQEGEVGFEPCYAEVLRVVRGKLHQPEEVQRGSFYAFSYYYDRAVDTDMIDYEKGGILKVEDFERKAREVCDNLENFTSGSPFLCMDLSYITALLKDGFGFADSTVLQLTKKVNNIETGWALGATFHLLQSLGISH

B1: CD39-L2myc-His (protein)
chain: MKKGIRYETSRKTSYIFQQPQHGPWQTRMRKISNHGSLRVAKVAYPLGLCVGVFIYVAYIKWHRATATQAFFSITRAAPGARWGQQAHSPLGTAADGHEVFYGIMFDAGSTGTRVHVFQFTRPPRETPTLTHETFKAVKPGLSAYADDVEKSAQGIRELLDVAKQDIPFDFWKATPLVLKATAGLRLLPGEKAQKLLQKVKEVFKASPFLVGDDCVSIMNGTDEGVSAWITINFLTGSLKTPGGSSVGMLDLGGGSTQIAFLPRVEGTLQASPPGYLTALRMFNRTYKLYSYSYLGLGLMSARLAILGGVEGQPAKDGKELVSPCLSPSFKGEWEHAEVTYRVSGQKAAASLHELCAARVSEVLQNRVHRTEEVKHVDFYAFSYYYDLAAGVGLIDAEKGGSLVVGDFEIAAKYVCRTLETQPQSSPFSCMDLTYVSLLLQEFGFPRSKVLKLTRKIDNVETSWALGAIFHYIDSLNRQKSPAS
B2: CD39L4 Cys39 to Ser mutant with a myc epitope and a 6 His tag at the C-terminus (enzyme, not shown: small tags and cut ends)
chain: HRNQQTWFEGIFLSSMSPINVSASTLYGIMFDAGSTGTRIHVYTFVQKMPGQLPILEGEVFDSVKPGLSAFVDQPKQGAETVQGLLEVAKDSIPRSHWKKTPVVLKATAGLRLLPEHKAKALLFEVKEIFRKSPFLVPKGSVSIMDGSDEGILAWVTVNFLTGQLHGHRQETVGTLDLGGASTQITFLPQFEKTLEQTPRGYLTSFEMFNSTYKLYTHSYLGFGLKAARLATLGALETEGTDGHTFRSACLPRWLEAEWIFGGVKYQYGGNQEGEVGFEPCYAEVLRVVRGKLHQPEEVQRGSFYAFSYYYDRAVDTDMIDYEKGGILKVEDFERKAREVCDNLENFTSGSPFLCMDLSYITALLKDGFGFADSTVLQLTKKVNNIETGWALGATFHLLQSLGISH
notes: also called Ser39 mutant; cys-mutant CD39L4
B3: CD39L4 Cys39 to Ala mutant with a myc epitope and a 6 His tag at the C-terminus (enzyme, not shown: small tags and cut ends)
chain: B2 chain with S17A
notes: also called Ala39 mutant; cys-mutant CD39L4
B4: ACR III: variant CD39-L4 with substitutions D168→T, S170→Q and L175→F (protein)
chain: MATSWGTVFFMLVVSCVCSAVSHRNQQTWFEGIFLSSMCPINVSASTLYGIMFDAGSTGTRIHVYTFVQKMPGQLPILEGEVFDSVKPGLSAFVDQPKQGAETVQGLLEVAKDSIPRSHWKKTPVVLKATAGLRLLPEHKAKALLFEVKEIFRKSPFLVPKGSVSIMTGQDEGIFAWVTVNFLTGQLHGHRQETVGTLDLGGASTQITFLPQFEKTLEQTPRGYLTSFEMFNSTYKLYTHSYLGFGLKAARLATLGALETEGTDGHTFRSACLPRWLEAEWIFGGVKYQYGGNQEGEVGFEPCYAEVLRVVRGKLHQPEEVQRGSFYAFSYYYDRAVDTDMIDYEKGGILKVEDFERKAREVCDNLENFTSGSPFLCMDLSYITALLKDGFGFADSTVLQLTKKVNNIETGWALGATFHLLQSLGISH

What was measured:
CD39-L2 [1] = assay: Inhibition of CD39-L2 ADPase activity by ATPase/phosphatase inhibitors and chelators; type: biochemical, human; details: concentrations as in Table 3
CD39-L4 [2] = target: T1, CD39-L4; assay: Inhibition of CD39-L4 ADPase activity by ATPase/phosphatase inhibitors and chelators; type: biochemical; details: concentrations as in Table 1
CD39-L4 [3] = target: T1, CD39-L4; assay: Substrate (nucleotide) specificity of CD39-L4, inorganic phosphate release; type: biochemical; details: nucleotide 1 mM; for % OF CONTROL, substrate specificity of CD39-L4: relative to ADP, buffer A with 1 mM EGTA, 2 mM CaCl2 and MgCl2
CD39-L2 [4] = assay: Substrate (nucleotide) specificity of CD39-L2, inorganic phosphate release; type: biochemical, human; details: for % OF CONTROL, substrate specificity of CD39-L2: relative to ADP, nucleotide 1 mM, buffer A with 1 mM EGTA, 3 mM CaCl2 and 3 mM MgCl2, 37° C., 30 min; for enzymatic activity relative to ADP hydrolysis: assays repeated with 15 mM ADP and 15 mM CaCl2
[5] = Kinetic characteristics of CD39-L2 ADP hydrolysis; type: biochemical
[6] = ADPase activity of CD39-L2 from transfected COS-7 cells, stimulation by divalent cations and Ca2+ titration; type: biochemical
[7] = target: the molecule itself; assay: Western blot of SDS-PAGE, self-association (dimer)
[8] = ADPase and ATPase activity of CD39L4 wild type and ACR mutants, inorganic phosphate released; type: biochemical
[9] = 15 mM CaCl2, ADP 0.75-18 mM, 15 min, 37° C.

Row | Molecule | inhibition of CD39-L2 ADPase activity, in words (CD39-L2 [1]) | inhibition of Ca2+ and Mg2+ stimulated CD39-L4 ADPase activity, in words (CD39-L4 [2]) | % OF CONTROL, substrate specificity of CD39-L4 (CD39-L4 [3]) | % OF CONTROL, substrate specificity of CD39-L2 (CD39-L2 [4]) | also measured
1 | CCN1C(=O)C=CC1=O [NEM] | not inhibited | did not significantly inhibit | – | – | –
2 | Nc1ncnc2c1ncn2[C@@H]1O[C@H](COP(=O)(O)OP(=O)(O)OP(=O)(O)OP(=O)(O)OP(=O)(O)OC[C@H]2O[C@@H](n3cnc4c(N)ncnc43)[C@H](O)[C@@H]2O)[C@@H](O)[C@H]1O [Ap5A] | did not inhibit activity | did not inhibit activity | – | – | –
3 | O=c1ccn([C@@H]2O[C@H](COP(=O)(O)OP(=O)(O)OP(=O)(O)O)[C@@H](O)[C@H]2O)c(=O)[nH]1 [UTP] | – | – | 12 ± 4% | 13 ± 1% | –
4 | O=C(O)CN(CCOCCOCCN(CC(=O)O)CC(=O)O)CC(=O)O [EGTA] | inhibited CD39-L2 activity | significantly inhibited activity | – | – | –
5 | Nc1nc2c(ncn2[C@@H]2O[C@H](COP(=O)(O)OP(=O)(O)OP(=O)(O)O)[C@@H](O)[C@H]2O)c(=O)[nH]1 [GTP] | – | – | 34 ± 1% | 39 ± 1% | –
6 | C[C@@H]1O[C@@H](O[C@H]2C[C@@H](O)[C@]3(CO)[C@H]4[C@H](O)C[C@]5(C)[C@@H](C6=CC(=O)OC6)CC[C@]5(O)[C@@H]4CC[C@]3(O)C2)[C@H](O)[C@H](O)[C@H]1O [Ouabain] | not inhibited | did not significantly inhibit | – | – | –
7 | Nc1ccn([C@@H]2O[C@H](COP(=O)(O)OP(=O)(O)OP(=O)(O)O)[C@@H](O)[C@H]2O)c(=O)n1 [CTP] | – | – | 26 ± 2% | 44 ± 4% | –
8 | Nc1ncnc2c1ncn2[C@@H]1O[C@H](COP(=O)(O)OP(=O)(O)OP(=O)(O)O)[C@@H](O)[C@H]1O [ATP, Adenosine triphosphate] | – | – | 5 ± 1% | 16 ± 2% | hydrolysis of the nucleotide by CD39-L4, in words (CD39-L4 [3]): poorest substrate
9 | F [F^−] | partially inhibited activity | did not inhibit activity | – | – | –
10 | Nc1nc2c(ncn2[C@@H]2O[C@H](COP(=O)(O)OP(=O)(O)O)[C@@H](O)[C@H]2O)c(=O)[nH]1 [GDP] | – | – | 334 ± 38% | 338 ± 52% | hydrolysis of the nucleotide by CD39-L4, in words (CD39-L4 [3]): very efficiently hydrolyzed; enzymatic activity relative to ADP hydrolysis (CD39-L2 [4]): 280%
11 | [N-]=[N+]=[N-] [N3^−] | not inhibited | did not significantly inhibit | – | – | –
12 | Nc1ncnc2c1ncn2[C@@H]1O[C@H](COP(=O)(O)OP(=O)(O)O)[C@@H](O)[C@H]1O [ADP, Adenosine diphosphate] | – | – | 100 ± 15% | 100 ± 8% | rate of ADP hydrolysis by CD39-L4 relative to ATP (CD39-L4 [3]): approximately twenty-fold higher than ATP
13 | O=c1ccn([C@@H]2O[C@H](COP(=O)(O)OP(=O)(O)O)[C@@H](O)[C@H]2O)c(=O)[nH]1 [UDP] | – | – | 408 ± 14% | 303 ± 5% | hydrolysis of the nucleotide by CD39-L4, in words (CD39-L4 [3]): very efficiently hydrolyzed; enzymatic activity relative to ADP hydrolysis (CD39-L2 [4]): 228%
14 | O=C(O)CN(CCN(CC(=O)O)CC(=O)O)CC(=O)O [EDTA] | inhibited CD39-L2 activity | significantly inhibited activity | – | – | –
15 | Nc1ccn([C@@H]2O[C@H](COP(=O)(O)OP(=O)(O)O)[C@@H](O)[C@H]2O)c(=O)n1 [CDP] | – | – | 268 ± 11% | 282 ± 18% | enzymatic activity relative to ADP hydrolysis (CD39-L2 [4]): 73%
16 | B1 | – | – | – | – | K (Hill's Equation) [5, 9]: 364.5; cooperativity, n (Hill's Equation) [5, 9]: 2.48; Vmax of ADP hydrolysis ([5]; 15 mM CaCl2, ADP 0.75-18 mM, 15 min, 37° C., 3.5 ng protein per reaction): 1028 pmol/min; substrate at half-maximal velocity [S]0.5 ([5]; [S]0.5=K^1/n): 10.6 mM; stimulation of ADPase activity by Ca2+ ([6]; 15 mM ADP, CaCl2 added to 15 mM): 17 fold; stimulation of ADPase activity by Mg2+ ([6]; 15 mM ADP, MgCl2 added to 15 mM): 8 fold; fold increase in ADPase activity over cells transfected with vector alone ([6]; CD39-L2myc-His from COS-7 medium on Nickel-NTA resin, 1 mM ADP, no added cation): 8.7 fold; further fold increase in ADPase activity when Ca2+ and Mg2+ added ([6]; Ca2+ and Mg2+ added, 1 mM ADP): 2-3 fold; effect of high Ca2+ concentration on ADPase activity ([6]; CaCl2 2-15 mM, low substrate concentration, 37° C., 20 min): no inhibitory effect
17 | B2 | – | – | – | – | binding result [7]: no binding
18 | B3 | – | – | – | – | binding result [7]: no binding
19 | B4 | – | – | – | – | hydrolysis of ADP, in words ([8]; ADP as substrate): hydrolyze ADP; hydrolysis of ATP, in words ([8]; ATP as substrate): neither the CD39L4 nor the CD39L4 mutant, ACR III, catalyzed hydrolysis; ADPase activity compared to wild type CD39-L4 ([8]; protein from COS-7 medium, 1 mM ADP, increase due to amount of protein, not specific activity): six-fold over wild type
